# Laboratory results from patent US20110014216A1, “Drug Transfer Based on Coenzyme A and Acyl Carrier Protein” (COVALYS B[…], priority 2007, published 2011).
# Test system: fusion protein ACP-FRB
# Assay: in vitro protein trimer formation with ACP-FRB, ACP synthase, SDS-PAGE
# Format: biochemical
# Conditions: FRB protein fused to ACP tag, ACP synthase enzyme, overnight incubation at 4° C., coomassie stained
# Experimental: A solution of maleimide derivative (34) (1.4 mg, 1 eq, 1.3 μmol) in DMF (0.7 mL) is added to a solution of CoA-SH (3.5 mg, 3.3 eq, 4.3 μmol) in Tris buffer (pH 7.5, 100 μL). The reaction mixture is shaken overnight at 31° C. The solvent is removed under vacuum and the crude mixture is purified via preparative HPLC. The structural ability of compound (35) to trigger the formation of a protein trimer is confirmed by in vitro experiments using the fusion protein ACP-FRB. 12.5 μL of a 48.5 μM solution of FRB protein fused to the ACP tag (Covalys) is mixed with 0.5 μL of a 0.2 mM solution of compound (35), 2.5 μL of a solution of [500 mM Tris-HCl pH 7.5; 1500 mM NaCl; 100 mM MgCl2], 9.5 μL of double distilled water and 0.5 μl of ACP synthase enzyme (available from Covalys). Following overnight incubation at 4° C., 5 μL of a solution of 100 mM Tris-HCl pH 6.8; 2% SDS; 35% glycerol; 10 mM EDTA; 20 mM DTT is added. The mixture is boiled for 5 min at 95° C. After cooling to rt, 30 μL of this solution is loaded on a 4-20% linear gradient SDS-PAGE gel. After electrophoresis, the proteins are coomassie stained in gel to visualize protein trimer.
smiles,measurement,value
"CCN(CC)c1ccc2nc3c4cc(OCC(=O)NC(COCCC(=O)NCCN5C(=O)CC(SCCNC(=O)CCNC(=O)[C@H](O)C(C)(C)COP(=O)([O-])OP(=O)([O-])OC[C@H]6O[C@@H](n7cnc8c(N)ncnc87)C(O)C6OP(=O)(O)O)C5=O)(COCCC(=O)NCCN5C(=O)CC(SCCNC(=O)CCNC(=O)[C@H](O)C(C)(C)COP(=O)([O-])OP(=O)([O-])OC[C@H]6O[C@@H](n7cnc8c(N)ncnc87)C(O)C6OP(=O)(O)O)C5=O)COCCC(=O)NCCN5C(=O)CC(SCCNC(=O)CCNC(=O)[C@H](O)C(C)(C)COP(=O)([O-])OP(=O)([O-])OC[C@H]6O[C@@H](n7cnc8c(N)ncnc87)C(O)C6OP(=O)(O)O)C5=O)ccc4c(=O)cc-3oc2c1.[Na+].[Na+].[Na+].[Na+].[Na+].[Na+] (stereo partly shown) [Compound 35, N-Tris-{[2-(2-(2-(CoA-S)-succinimido)ethylaminocarbonyl)ethoxy]-methyl}methyl nile red-oxyacetamide]",structural ability to trigger the formation of a protein trimer,confirmed
